Test results as given in PubChem BioAssay (NCI).
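All cell lines were grown in 96-well plates and treated with compound for 48 hours. TGI denotes the concentration required for complete inhibition of growth.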

What was measured:
Assay in all cases: NCI tumour cell line growth inhibition, 48 h
786-0 renal = system: 786-0 renal
A498 renal = system: A498 renal
A549 NSCLC = system: A549 NSCLC
ACHN renal = system: ACHN renal
CAKI-1 renal = system: CAKI-1 renal
CCRF-CEM leukemia = system: CCRF-CEM leukemia
COLO 205 colon = system: COLO 205 colon
DLD-1 colon = system: DLD-1 colon
DMS 114 small cell lung = system: DMS 114 small cell lung
DMS 273 small cell lung = system: DMS 273 small cell lung
EKVX NSCLC = system: EKVX NSCLC
HCC-2998 colon = system: HCC-2998 colon
HCT-116 colon = system: HCT-116 colon
HCT-15 colon = system: HCT-15 colon
HL-60(TB) leukemia = system: HL-60(TB) leukemia
HOP-18 NSCLC = system: HOP-18 NSCLC
HOP-62 NSCLC = system: HOP-62 NSCLC
HOP-92 NSCLC = system: HOP-92 NSCLC
HT29 colon = system: HT29 colon
IGROV1 ovarian = system: IGROV1 ovarian
K-562 leukemia = system: K-562 leukemia
KM12 colon = system: KM12 colon
KM20L2 colon = system: KM20L2 colon
LOX IMVI melanoma = system: LOX IMVI melanoma
LXFL 529 NSCLC = system: LXFL 529 NSCLC
M14 melanoma = system: M14 melanoma
M19-MEL melanoma = system: M19-MEL melanoma
MALME-3M melanoma = system: MALME-3M melanoma
MOLT-4 leukemia = system: MOLT-4 leukemia
NCI-H226 lung = system: NCI-H226 lung
NCI-H23 lung = system: NCI-H23 lung
NCI-H460 lung = system: NCI-H460 lung
NCI-H522 lung = system: NCI-H522 lung
OVCAR-3 ovarian = system: OVCAR-3 ovarian
OVCAR-4 ovarian = system: OVCAR-4 ovarian
OVCAR-5 ovarian = system: OVCAR-5 ovarian
OVCAR-8 ovarian = system: OVCAR-8 ovarian
RXF 393 renal = system: RXF 393 renal
SF-268 CNS = system: SF-268 CNS
SF-295 CNS = system: SF-295 CNS
SF-539 CNS = system: SF-539 CNS
SK-MEL-2 melanoma = system: SK-MEL-2 melanoma
SK-MEL-28 melanoma = system: SK-MEL-28 melanoma
SK-MEL-5 melanoma = system: SK-MEL-5 melanoma
SK-OV-3 ovarian = system: SK-OV-3 ovarian
SN12C renal = system: SN12C renal
SNB-19 CNS = system: SNB-19 CNS
SNB-75 CNS = system: SNB-75 CNS
SNB-78 CNS = system: SNB-78 CNS
SW-620 colon = system: SW-620 colon
TK-10 renal = system: TK-10 renal
U251 CNS = system: U251 CNS
UACC-257 melanoma = system: UACC-257 melanoma
UACC-62 melanoma = system: UACC-62 melanoma
UO-31 renal = system: UO-31 renal
XF 498 CNS = system: XF 498 CNS
RPMI-8226 leukemia = system: RPMI-8226 leukemia
RXF-631 renal = system: RXF-631 renal

Measured: TGI

NC(=O)NNC(=O)NC12CC3CC(CC(C3)C1)C2
> 100 µM: 786-0 renal | A498 renal | A549 NSCLC | ACHN renal | CAKI-1 renal | CCRF-CEM leukemia | COLO 205 colon | DLD-1 colon | DMS 114 small cell lung | DMS 273 small cell lung | EKVX NSCLC | HCC-2998 colon | HCT-116 colon | HCT-15 colon | HL-60(TB) leukemia | HOP-18 NSCLC | HOP-62 NSCLC | HOP-92 NSCLC | HT29 colon | IGROV1 ovarian | K-562 leukemia | KM12 colon | KM20L2 colon | LOX IMVI melanoma | LXFL 529 NSCLC | M14 melanoma | M19-MEL melanoma | MALME-3M melanoma | MOLT-4 leukemia | NCI-H226 lung | NCI-H23 lung | NCI-H460 lung | NCI-H522 lung | OVCAR-3 ovarian | OVCAR-4 ovarian | OVCAR-5 ovarian | OVCAR-8 ovarian | RXF 393 renal | SF-268 CNS | SF-295 CNS | SF-539 CNS | SK-MEL-2 melanoma | SK-MEL-28 melanoma | SK-MEL-5 melanoma | SK-OV-3 ovarian | SN12C renal | SNB-19 CNS | SNB-75 CNS | SNB-78 CNS | SW-620 colon | TK-10 renal | U251 CNS | UACC-257 melanoma | UACC-62 melanoma | UO-31 renal | XF 498 CNS

NC(=O)C(=O)C1CCC2=C(Sc3ccccc3N2)C1=O (stereo unspecified)
> 100 µM: 786-0 renal | A498 renal | A549 NSCLC | ACHN renal | CAKI-1 renal | COLO 205 colon | DLD-1 colon | DMS 114 small cell lung | EKVX NSCLC | HCC-2998 colon | HCT-116 colon | HCT-15 colon | HL-60(TB) leukemia | HOP-62 NSCLC | HOP-92 NSCLC | IGROV1 ovarian | K-562 leukemia | KM12 colon | KM20L2 colon | LOX IMVI melanoma | LXFL 529 NSCLC | M14 melanoma | M19-MEL melanoma | MALME-3M melanoma | MOLT-4 leukemia | NCI-H23 lung | NCI-H460 lung | NCI-H522 lung | OVCAR-3 ovarian | OVCAR-4 ovarian | OVCAR-5 ovarian | OVCAR-8 ovarian | RPMI-8226 leukemia | RXF 393 renal | RXF-631 renal | SF-268 CNS | SF-539 CNS | SK-MEL-2 melanoma | SK-MEL-28 melanoma | SK-MEL-5 melanoma | SK-OV-3 ovarian | SNB-19 CNS | SNB-75 CNS | SNB-78 CNS | SW-620 colon | TK-10 renal | U251 CNS | UACC-257 melanoma | UACC-62 melanoma | UO-31 renal
